Values of other authors, collected in patent US20250268979A1, “COMBINATION OF MACROCYCLIC CFTR MODULATORS WITH CFTR CORRECTORS AND / OR CFTR POTENTIATORS” (Idorsia Pharmaceuticals Ltd, priority 2022, published 2025).
Where two headings read alike, the source gives them in different places.

Assays:
[1] = tested on: CF patients carrying at least one F508del-CFTR allele
[2] = tested on: patients homozygous for the F508del-CFTR mutation; conditions: 450 mg b.i.d.
[3] = tested on: CF patients carrying class III, IV CFTR mutations on one allele
[4] = tested on: patients with moderate to severe COPD and symptoms of chronic bronchitis; conditions: 300 mg b.i.d., 4 weeks
healthy volunteers = conditions: up to 1000 mg following SAD and up to 750 mg b.i.d. following MAD
[5] = tested on: CF patients with ivacaftor-responsive CFTR mutations; conditions: for mean ctrough plasma concentration: 4 weeks of treatment; for absolute change from baseline in sweat chloride compared to ivacaftor 150 mg b.i.d. / ppFEV1 treatment difference versus ivacaftor 150 mg b.i.d.: 12 weeks
F508del-CFTR [6] = target: T1, F508del-CFTR (Homo sapiens, UniProt P13569, DEL508-508)
T1 construct: from tissue; host or cells: reconstituted bronchial epithelium from CF patients

F508del-CFTR [7] = target: T1, F508del-CFTR; conditions: homozygous F508del-CFTR doners; in the presence of potentiator GLPG1837
[8] = tested on: CF patients homozygous for the F508del-CFTR mutation
[9] = tested on: F508del-CFTR homozygous patients; conditions: Keating, 2018
[10] = 14 days, PTI-801 600 mg triple combination
[11] = patients predisposed to rapid pulmonary decline, combo regimen with 600 mg PTI-801

T1 sequence (P13569 with tags, fused parts or gaps DEL508-508): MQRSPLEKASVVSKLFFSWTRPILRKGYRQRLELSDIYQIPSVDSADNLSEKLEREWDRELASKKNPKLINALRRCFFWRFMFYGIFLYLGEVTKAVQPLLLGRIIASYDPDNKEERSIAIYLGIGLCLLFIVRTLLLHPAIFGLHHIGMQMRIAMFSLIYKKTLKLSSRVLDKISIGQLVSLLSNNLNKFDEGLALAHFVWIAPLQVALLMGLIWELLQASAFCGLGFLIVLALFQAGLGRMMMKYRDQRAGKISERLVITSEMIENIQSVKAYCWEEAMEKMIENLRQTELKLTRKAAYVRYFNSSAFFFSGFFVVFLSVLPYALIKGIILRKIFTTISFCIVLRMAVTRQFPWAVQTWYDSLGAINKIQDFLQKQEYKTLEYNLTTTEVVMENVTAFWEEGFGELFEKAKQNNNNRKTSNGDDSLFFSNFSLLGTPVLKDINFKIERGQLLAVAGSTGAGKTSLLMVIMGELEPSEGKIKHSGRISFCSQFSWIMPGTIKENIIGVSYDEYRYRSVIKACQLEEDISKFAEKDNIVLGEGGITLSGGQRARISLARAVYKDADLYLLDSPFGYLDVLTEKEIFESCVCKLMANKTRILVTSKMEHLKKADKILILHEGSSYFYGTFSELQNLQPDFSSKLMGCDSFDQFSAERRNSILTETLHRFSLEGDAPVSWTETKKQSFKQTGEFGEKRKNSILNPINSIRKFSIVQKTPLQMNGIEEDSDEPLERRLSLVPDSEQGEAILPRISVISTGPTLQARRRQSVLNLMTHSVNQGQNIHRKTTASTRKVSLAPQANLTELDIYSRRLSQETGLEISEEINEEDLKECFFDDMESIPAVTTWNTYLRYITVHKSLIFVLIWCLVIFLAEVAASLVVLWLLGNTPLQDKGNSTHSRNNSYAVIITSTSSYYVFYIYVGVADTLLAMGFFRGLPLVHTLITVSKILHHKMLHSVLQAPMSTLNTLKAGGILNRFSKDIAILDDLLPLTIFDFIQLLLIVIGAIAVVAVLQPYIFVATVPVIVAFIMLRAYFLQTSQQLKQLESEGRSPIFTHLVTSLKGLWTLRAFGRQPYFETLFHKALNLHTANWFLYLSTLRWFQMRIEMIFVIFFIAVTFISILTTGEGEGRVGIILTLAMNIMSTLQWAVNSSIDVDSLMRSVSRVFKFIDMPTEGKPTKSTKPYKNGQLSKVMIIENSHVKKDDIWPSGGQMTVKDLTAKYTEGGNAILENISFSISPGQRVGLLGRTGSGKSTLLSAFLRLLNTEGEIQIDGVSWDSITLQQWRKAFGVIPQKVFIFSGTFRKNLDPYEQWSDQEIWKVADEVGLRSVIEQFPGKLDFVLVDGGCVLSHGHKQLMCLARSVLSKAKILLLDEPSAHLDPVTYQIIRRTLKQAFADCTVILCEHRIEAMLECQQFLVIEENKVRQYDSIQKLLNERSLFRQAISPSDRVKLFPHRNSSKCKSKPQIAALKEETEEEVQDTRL

SMILES: Cc1c(-c2cc(C(=O)O)c3c(O[C@H](C)C4CCOCC4)ccc(C)c3n2)oc2ccccc12 [PTI-801]
- decrease in sweat chloride compared with before treatment [1, 10]: 19 mM
- decrease in sweat chloride compared with placebo [1, 10]: 24 mM
- increase in mean absolute ppFEV1 compared with before the treatment ([1]; 14 days, PTI-801 600 mg with PTI-808 150 mg and PTI-428 30 mg): 5%
- improvement in ppFEV1 compared with before treatment [1, 11]: 6%
- improvement in ppFEV1 compared with placebo [1, 11]: 8%

SMILES: COc1nc(C(=O)NC[C@](C)(O)C(F)(F)F)c(N)cc1C(F)(F)F [icenticaftor, 3-Amino-6-methoxy-N-[(2S)-3,3,3-trifluoro-2-hydroxy-2-methylpropyl]-5-(trifluoromethyl)pyridine-2-carboxamide]
- sweat chloride and lung function [2]: no reduction in sweat chloride or improvement in lung function
- LCI2.5 compared to placebo ([3]; 450 mg b.i.d., 14 days): −1.13
- ppFEV1 increase versus placebo ([3]; 450 mg b.i.d., 14 days): 6.5%
- sweat chloride concentration versus placebo ([3]; 450 mg b.i.d., 14 days): -8.4 mM
- tolerability in CF patients ([3]; 150 and 450 mg b.i.d., across all patient sub-groups): well tolerated
- LCI2.5 compared to placebo [4]: did not change
- sweat chloride compared to placebo ([4]; average baseline 23 mM): -5.04 mM
- FEV1 compared to placebo ([4]; average baseline 1.4-1.5 L): 0.05 to 0.06 L
- plasma fibrinogen compared to placebo ([4]; average baseline 3.2 g/L): -0.39 g/L
- tolerability (healthy volunteers): well tolerated

SMILES: Nc1cc(S(=O)(=O)c2ccc(OC(F)(F)F)cc2)cnc1-c1nnc(CO)o1 [navocaftor, (5-(3-Amino-5-((4-(trifluoromethoxy)phenyl)sulfonyl)pyridin-2-yl)-1,3,4-oxadiazol-2-yl) methanol]
- navocaftor exposure in the presence of galicaftor (healthy subjects; in vivo): not apparently altered
- tolerability (healthy subjects; up to 1000 mg single dose and up to 500 mg b.i.d. for 14 days): generally well tolerated

SMILES: CC(C)(C)c1cc(C(C)(C)C)c(NC(=O)c2c[nH]c3ccccc3c2=O)cc1O [ivacaftor, N-(2,4-di-tert-butyl-5-hydroxyphenyl)-1,4-dihydro-4-oxoquinoline-3-carboxamide]
- mean ctrough plasma concentration ([5]; 150 mg b.i.d.): 952 ng/mL
- further augmentation of function on addition to tezacaftor and elexacaftor (F508del-CFTR [6]; Keating, 2018): 2 fold
- augmentation of CFTR function on addition to lumacaftor-corrected F508del-CFTR (F508del-CFTR [6]; van Goor, 2011): almost two-fold

SMILES: O=C(O)c1ccc([C@H]2C[C@@H](NC(=O)C3(c4ccc5c(c4)OC(F)(F)O5)CC3)c3ccc(OC(F)F)cc3O2)cc1 [galicaftor, 4-[(2R,4R)-4-({[1-(2,2-Difluoro-1,3-benzodioxol-5-yl)cyclopropyl]carbonyl}amino)-7-(difluoromethoxy)-3,4-dihydro-2H-chromen-2-yl]benzoic Acid]
- EC50 (F508del-CFTR [7]): 5 nM
- change in sweat chloride versus placebo ([8]; 200 mg dose group, day 29): -15.8 mM
- tolerability and safety ([8]; 4 weeks, once-daily 50, 100, 200 and 400 mg): well tolerated and safe
- change from baseline in CFQ-R score versus placebo ([8]; day 29): No significant changes versus placebo
- change from baseline in ppFEV1 versus placebo ([8]; day 29): No significant changes versus placebo
- galicaftor exposure in the presence of two different doses of navocaftor (healthy subjects; in vivo): similar

SMILES: [2H]C([2H])([2H])C(c1cc(C(C)(C)C)c(NC(=O)c2c[nH]c3ccccc3c2=O)cc1O)(C([2H])([2H])[2H])C([2H])([2H])[2H] [deutivacaftor, N-[2-tert-butyl-4-[1,1,1,3,3,3-hexadeuterio-2-(trideuteriomethyl)propan-2-yl]-5-hydroxyphenyl]-4-oxo-1H-quinoline-3-carboxamide]
- mean ctrough plasma concentration ([5]; 150 mg once daily): 458 ng/mL
- absolute change from baseline in sweat chloride compared to ivacaftor 150 mg b.i.d. ([5]; 150 mg once daily): +2.4 mM
- ppFEV1 treatment difference versus ivacaftor 150 mg b.i.d. ([5]; 150 mg once daily): +3.9%
- mean ctrough plasma concentration ([5]; 250 mg once daily): 1100 ng/mL
- absolute change from baseline in sweat chloride compared to ivacaftor 150 mg b.i.d. ([5]; 250 mg once daily): -7.4 mM
- ppFEV1 treatment difference versus ivacaftor 150 mg b.i.d. ([5]; 250 mg once daily): +3.5%

SMILES: Cc1nn(C)cc1S(=O)(=O)NC(=O)c1ccc(-n2ccc(OCC(C)(C)C(F)(F)F)n2)nc1N1C[C@@H](C)CC1(C)C [elexacaftor, N-(1,3-dimethyl-1H-pyrazole-4-sulfonyl)-6-[3-(3,3,3-trifluoro-2,2-dimethylpropoxy)-1H-pyrazol-1-yl]-2-[(4S)-2,2,4-trimethylpyrrolidin-1-yl]pyridine-3-carboxamide]
- ppFEV1 increase on adding to basal treatment of tezacaftor+ivacaftor (SYMDEKO) [9]: 10%
